Each structure is given as a SMILES string. Converted amounts (≈) assume the structure as drawn. “And” between values parts separate entries of the source, which are not always exact repeats. Identical values can stand only once.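 Dose response: 5 concentrations. Exposure: 48 h. Format: 96-well plates. Endpoint: linear interpolation; highest concentration if not reached. GI50 marks 50% less growth. The concentration for full growth arrest is given as TGI.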 The source made the active and inactive calls. No stated cut-off is given here; in the data, active means GI50 below about 0.43 µM; inactive means the rest. Where a SMILES comes first, the peptide text is derived from it. [ ]: non-standard residue; d: D form. The star is where a group is joined. ξ: configuration not given here. NMeN = CN[C@@H](CC(N)=O)C(=O)O; NMeV = CN[C@H](C(=O)O)C(C)C; ξNMeV = CNC(C(=O)O)C(C)C; Boc = CC(C)(C)OC(=O)*; ξNMeA = CNC(C)C(=O)O

The results in this text go back to PubChem BioAssay (NCI).

Some test systems named below: DMS 114 small cell lung; DU-145 prostate; LXFL 529 NSCLC; KM20L2 colon; MDA-MB-435; HOP-18 NSCLC; SNB-78 CNS; DLD-1 colon; DMS 273 small cell lung.
Holding throughout (experiment): inhibition of tumour cell growth, NCI panel, 48 h

Take `C=C1C(=O)[C@@]23CC1C(O)[C@@H](OC(C)=O)[C@@H]2C1(C)C(OC(C)=O)C[C@@H](OC(C)=O)C(C)(C)[C@@H]1C[C@H]3OC(C)=O` (some centres not stated): the figures for the GI50 in the assay with DMS 114 small cell lung, in the assay with DU-145 prostate and in the assay with MDA-MB-435 were 2.08 µg/mL, 16.9 µg/mL (≈ 31.6 µM) and 2.88 µg/mL (≈ 5.39 µM), respectively. The TGI in the assay on DMS 114 small cell lung was 4.6 µg/mL; in the assay on DU-145 prostate, > 10 µM and 30.6 µg/mL; in the assay with MDA-MB-435 it was 9.51 µg/mL. Besides, the outcome in the assay with LXFL 529 NSCLC and with KM20L2 colon was inactive.
As to `O=C1c2ccccc2C2(O)NC(=S)N(c3ccccc3)C12O` (configuration not stated), the TGI in the assay with HOP-18 NSCLC, with SNB-78 CNS, in the assay with DMS 114 small cell lung, in the assay on LXFL 529 NSCLC, in the assay on KM20L2 colon and in the assay on DLD-1 colon was over 100 µM in each case.
For the compound `Cc1ccc(NC(=O)CC(=O)n2nc(-c3ccccc3)c(N=Nc3ccccc3Cl)c2-c2ccccc2)cc1`, the TGI in the assay on HOP-18 NSCLC, in the assay with DMS 114 small cell lung, with LXFL 529 NSCLC, with KM20L2 colon and with DMS 273 small cell lung was over 100 µM each time. In addition, the GI50 in the assay on DMS 114 small cell lung and in the assay with KM20L2 colon was over 100 µM in each case.
For the compound `CCn1c(O)c(C=N)c(=O)n(CC)c1=O`, the TGI with HOP-18 NSCLC, in the assay with SNB-78 CNS, in the assay on DMS 114 small cell lung, in the assay on LXFL 529 NSCLC, in the assay with KM20L2 colon and with DMS 273 small cell lung was over 100 µM in each case. For the same compound, in the assay with DLD-1 colon, the TGI was over 100 µM.
Turning to `COC(=O)C(C)N(C)C(=O)[C@H](CC(N)=O)N(C)C(=O)[C@@H]1CCCN1C(=O)[C@H](C(C)C)N(C)C(=O)C(C(C)C)N(C)C(=O)[C@@H](NC(=O)OC(C)(C)C)C(C)C` (some centres not stated) (Boc-V[ξNMeV][NMeV]P[NMeN][ξNMeA]-OMe), the TGI is over 100 µM with HOP-18 NSCLC; over 100 µM in the assay with SNB-78 CNS; over 50 µM in the assay with DU-145 prostate; over 100 µM in the assay with LXFL 529 NSCLC; over 100 µM in the assay with KM20L2 colon; over 100 µM in the assay with DMS 273 small cell lung. Further, the figures for the TGI in the assay with DLD-1 colon and with MDA-MB-435 were over 100 µM and over 50 µM, respectively.
As to `CCc1nc(N)nc(C(=O)NCCNC(=O)c2nc(N)nc(CC)c2C)c1C`, the TGI with HOP-18 NSCLC, in the assay on SNB-78 CNS, with DMS 114 small cell lung, with LXFL 529 NSCLC, in the assay with KM20L2 colon and in the assay on DMS 273 small cell lung was over 100 µM each time. Further, the TGI with DLD-1 colon was over 100 µM.
Take `C1CCN(C2OC3C(COC3N3CCCCC3)OC2OC2CCO[C@@H]2N2CCCCC2)CC1` (some centres not stated): the TGI is 56.1 µM in the assay with SNB-78 CNS; 54.7 µM in the assay with DMS 114 small cell lung; 68.5 µM with LXFL 529 NSCLC; over 100 µM in the assay with KM20L2 colon; over 100 µM in the assay on DMS 273 small cell lung; over 100 µM in the assay with DLD-1 colon.
In the case of `CC/C(=C(/CC)c1ccc(O)cc1)c1ccc([O-])cc1.CC/C(=C(/CC)c1ccc(O)cc1)c1ccc([O-])cc1.O=C([CH-]C(=O)c1ccccc1)c1ccccc1.O=C([CH-]C(=O)c1ccccc1)c1ccccc1.[Ti+4]`, the GI50 in the assay with HOP-18 NSCLC was 24.4 µM; with SNB-78 CNS, 27.1 µM; with KM20L2 colon, 19.3 µM; in the assay with DMS 273 small cell lung, 16.3 µM; in the assay with DLD-1 colon, 10.8 µM. Moreover, the TGI is 39.3 µM in the assay with HOP-18 NSCLC; over 100 µM in the assay on SNB-78 CNS; 41.3 µM with KM20L2 colon; over 100 µM with DMS 273 small cell lung; 28.9 µM with DLD-1 colon.
In the case of `CC(=O)Nc1c(C)ccc2c1C(=O)c1ccccc1C2=O`, the TGI in the assay with HOP-18 NSCLC, in the assay with SNB-78 CNS, with DMS 114 small cell lung, with LXFL 529 NSCLC, in the assay on DMS 273 small cell lung and in the assay on DLD-1 colon was over 100 µM each time.
In the case of `Cc1nc2cc(N)c(F)cc2[nH]1`, the TGI in the assay with SNB-78 CNS, in the assay on DMS 114 small cell lung, in the assay with LXFL 529 NSCLC, with DMS 273 small cell lung and in the assay on DLD-1 colon was over 100 µM each time.
In the case of `CCCC(C)C[C@@H](C)CC(C)/C=C(\C)c1oc(=O)c(C)c(O)c1C` (some centres not stated) (tested in a mixture with another compound), the TGI worked out at 45.9 µM in the assay with SNB-78 CNS; 32.2 µM in the assay with DMS 114 small cell lung; 25.9 µM in the assay on LXFL 529 NSCLC; 25.7 µM in the assay with KM20L2 colon; 32.4 µM in the assay on DMS 273 small cell lung; 27.8 µM in the assay with DLD-1 colon.
Turning to `Nc1ncn(C2C=C(CO)C(O)C2O)c(=O)n1` (configuration not stated), the TGI with HOP-18 NSCLC, with SNB-78 CNS, in the assay on LXFL 529 NSCLC, in the assay with KM20L2 colon, in the assay on DMS 273 small cell lung and in the assay on DLD-1 colon was over 100 µM each time.
`Cc1cccc(C)c1NC(=O)CCc1nnc2s/c(=C\c3ccc(Cl)cc3)c(=O)n12`: the TGI in the assay with HOP-18 NSCLC, with SNB-78 CNS, with DMS 114 small cell lung, with LXFL 529 NSCLC, in the assay on KM20L2 colon and with DMS 273 small cell lung was over 100 µM each time. The compound further returned a TGI in the assay with DLD-1 colon of over 100 µM.
Turning to `COC1OC(C)C(O)CC1OS(=O)(=O)c1ccc(C)cc1` (configuration not stated), the TGI in the assay with HOP-18 NSCLC, in the assay with SNB-78 CNS, in the assay on DMS 114 small cell lung, in the assay with LXFL 529 NSCLC, in the assay with KM20L2 colon and in the assay on DMS 273 small cell lung was over 100 µM in each case.
For `O=C1NC2CCC(C2)C1c1ccccc1` (configuration not stated), the TGI in the assay with HOP-18 NSCLC, with SNB-78 CNS, in the assay with DMS 114 small cell lung, in the assay with LXFL 529 NSCLC, in the assay on DMS 273 small cell lung and in the assay on DLD-1 colon was over 100 µM throughout.
As for `CC(=O)N/C(=C\c1cccc([N+](=O)[O-])c1)c1nc2c3c(ccc2[nH]1)C(=O)c1ccccc1C3=O`, the TGI in the assay on SNB-78 CNS, in the assay on DMS 114 small cell lung, with LXFL 529 NSCLC, with KM20L2 colon and in the assay with DLD-1 colon was over 100 µM in each case.
For `NC(=S)N/N=C(\C(=O)Nc1cccc([N+](=O)[O-])c1)c1nc2ccc([N+](=O)[O-])cc2[nH]c1=O`, the TGI with HOP-18 NSCLC, in the assay with DMS 114 small cell lung, in the assay with LXFL 529 NSCLC, in the assay with KM20L2 colon, with DMS 273 small cell lung and with DLD-1 colon was over 100 µM throughout.
